Data taken from patent US10781203B2, “Nontoxic compounds for the treatment and prevention of herpesvirus infections” (The Penn State Research Foundation, priority 2016, dated 2020).

Assays:
[1] = tested on: cytoplasmic viral assembly compartment (cVAC); test: cVAC morphology / localization of viral and cellular markers by fluorescence microscopy; type: cell-based, human
Experimental: (§1) Coverslips or chamber slides containing either uninfected or HCMV-infected cells were washed in phosphate-buffered saline (PBS) and fixed in 2% paraformaldehyde for 15 min at room temperature. Cells were blocked in PBS containing 10% human serum, 0.5% Tween-20, and 5% glycine. 0.1% Triton-X 100 was added for permeabilization. Primary and secondary antibodies as specified in the antibody section were diluted in blocking buffer. Nuclei were stained with DAPI prior to mounting with ProLong Diamond Antifade Mountant (ThermoScientific). For live-cell experiments using the pp28-mCherry virus, cells were grown on glass bottom microwell dishes (MatTek Corporation) and nuclei were stained with NucBlue Live Cell Stain ReadyProbes reagent (ThermoScientific). All images were acquired using a C2+ Confocal Microscope System (Nikon). Images were processed using NIS elements software. Images shown are volume renderings of Z-stacks.

[2] = tested on: cells; test: Cell viability after extended treatment (trypan blue, bright field); type: cell-based
From the text: FIG. 3A is a growth curve analysis of HCMV (MOI=3) in untreated (WT), vehicle treated (DMSO) or Retro94-treated cells. Samples were harvested at 24, 48, 72, 96, 120 and 144 hpi. […] Nuclei labeled with DAPI (blue). Scale bars: 10 μm. FIG. 3C is a growth curve analysis of HCMV (MOI=0.05) in DMSO control (DMSO) or Retro94-treated cells. Samples were harvested at 3, 6, 9, 12 and 15 dpi. Asterisks indicate change of media with fresh Retro94. […] Bright field images of cell monolayers at 4 days post treatment are shown below graph. Brefeldin A was included as a positive control for cell death. Values in FIGS. 3A and 3C are from one representative experiment.
Normal human dermal fibroblasts, HDFs (Cell Applications Inc. 106-05N), and normal human lung fibroblasts, MRC-5 cells (ATCC CCL-171) were maintained in Dulbecco's modified Eagle's medium (DMEM) (Lonza). Human retinal pigmented epithelial cells (ARPE-19), maintained in DMEM/Ham's F12 (1:1 mix) (Lonza), human embryonic lung fibroblasts (HEL) and mouse embryonic fibroblasts (NIH 3T3), maintained in DMEM (Lonza) were obtained (Spector D J, Yetming K. Virology. 2010; 407(2):171-7; Spector D J. Virology. 2015, 476:345-54). All media was supplemented with 10% fetal bovine serum, 100 U/ml penicillin and 100 µg/ml streptomycin, and 2 mM GlutaMAX (Gibco). Cells were maintained at 37° C. with 5% CO2. […]

[3] = tested on: HCMV-infected ARPE-19 cells (TB40); test: Spread of HCMV TB40-mCherry in ARPE-19 cells (viral foci area); type: cell-based, Human cytomegalovirus (HCMV); conditions: TB40-mCherry MOI=3, 10 μM, three weeks after infection
Experimental: FIG. 7A is a graph showing viral titers at 15 dpi of fibroblasts infected with various strains of HCMV (MOI=0.05) and treated with DMSO or Retro94 at 2 hpi. Media was changed and fresh Retro94 was added at 6 dpi. Bright field images representing CPE of above infections shown at right. FIG. 7B show HCMV-infected ARPE-19 cells (TB40, MOI=3) at 21 dpi treated with DMSO or Retro94 ([…]). Infected cells detected by monitoring mCherry (red) expressed by TB40 virus. Scale bars: 1 mm. The table below images show number of foci detected, average area and standard error of the mean. P<0.00001. […]
For MCMV growth curve analysis, samples were titrated on NIH 3T3 cells and titers were calculated using the 50% tissue culture infective dose method. Both HCMV virus stocks and samples for growth curves were titrated by serial dilutions on MRC5 cells and quantified by the immunological detection of immediate-early proteins as previously described (Britt W J. Human cytomegalovirus: propagation, quantification, and storage. Curr Protoc Microbiol. 2010; Chapter 14: Unit 14E.3). The numbers of stained nuclei were acquired on a Nikon Eclipse Ti Inverted microscope and fluorescent nuclei were quantified using the NIS Elements Software. […] The number and size of foci were quantified using NIS Elements software.

[4] = tested on: HCMV-infected cells; test: Western blot analysis of HCMV-infected cell lysates; type: cell-based, human; conditions: MOI=3, 10 μM
Experimental: Total cell lysates were prepared from uninfected or HCMV-infected cells (MOI=3) at the indicated time points by harvesting lystates in radioimmunoprecipitation assay buffer (1% NP-40, 1% sodium deoxycholate, 0.1% sodium dodecyl sulfate [SDS], 0.15 M NaCl, 10 mM sodium phosphate [pH 7.2], 2 mM EDTA, 50 mM NaF, 1 mM phenylmethylsulfonyl fluoride, […], 0.2 mM Na3VO4, 1 μg/ml leupeptin). After centrifugation, the supernatant was collected and stored at −80° C. The protein was quantified by a Bradford assay (Bio-Rad) and samples were analyzed by SDS-PAGE gel electrophoresis and immunoblotting on nitrocellulose or PVDF membrane blocked with 5% milk or 5% BSA in tris-buffered saline (0.1% tween). Antibody dilutions were in accordance with manufacturer's instructions.

[5] = target: T1, STX5 (Homo sapiens, UniProt Q13190); test: Immunofluorescence detection of STX5 localization; type: cell-based
T1 construct: immunofluorescence detection of STX5 in uninfected (Mock) and HCMV-infected cells (96 hpi) in the presence of DMSO control or Retro94; endogenous in cells; host or cells: uninfected (mock) or HCMV-infected cells
T1 sequence (Q13190 1-355): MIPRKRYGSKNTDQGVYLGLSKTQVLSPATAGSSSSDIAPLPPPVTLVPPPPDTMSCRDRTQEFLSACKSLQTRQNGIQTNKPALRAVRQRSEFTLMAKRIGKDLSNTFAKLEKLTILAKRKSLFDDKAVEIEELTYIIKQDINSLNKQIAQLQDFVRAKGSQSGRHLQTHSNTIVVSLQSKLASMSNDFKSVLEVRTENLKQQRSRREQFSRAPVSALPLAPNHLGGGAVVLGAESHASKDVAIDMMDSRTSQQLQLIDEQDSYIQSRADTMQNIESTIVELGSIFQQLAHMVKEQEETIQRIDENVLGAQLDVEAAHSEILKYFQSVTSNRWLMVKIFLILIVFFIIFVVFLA
Experimental: as §1

Cc1nc(-c2ccc(C3N(C)c4ccccc4C(=O)N3c3ccccc3)s2)cs1 (stereo not shown) [Retro94, 1-Methyl-2-(5-(2-methylthiazol-4-yl)thiophen-2-yl)-3phenyl-2,3-dihydroquinazolin-4(1H)-one]
localization of viral proteins pp28, pp150 and glycoprotein B ([1]; 96 hpi, 10 μM): dispersed throughout the cytoplasm and were no longer present in the cVAC | localization of GS27 and GS28 ([1]; MOI=3, 96 hpi): mostly remained in a perinuclear localization | localization of markers of Golgi (GM130), TGN (p230) and endosomes (EEA1) ([1]; MOI=3, 96 hpi): retained their perinuclear localization | normal cVAC morphology ([1]; MOI=3, 96 hpi): did not form | cVAC as detected by pp28-mCherry ([1]; added at 2 or 24 hpi, imaged at 96 hpi): no area representing a cVAC was detected | pp28 localization (pp28-mCherry) ([1]; added at 48 hpi, imaged at 96 hpi): largely dispersed throughout the cell | perinuclear pp28 regions reminiscent of the cVAC ([1]; added at 72 hpi, imaged at 96 hpi): more prominent | effect on cell viability or cell morphology [2]: no effect | area of viral centers, DMSO treated versus compound treated cells [3]: more than twice | STX5 protein level during infection [4]: did not reach the same level as observed in control-treated samples | steady state levels of immediate-early and late viral proteins ([4]; 24-96 hpi): not affected | STX5 localization ([5]; HCMV-infected cells, 96 hpi): dispersed throughout the cell and was not located to the cVAC ring | STX5 localization ([5]; uninfected cells): lost its Golgi-localization
